The source of these data is patent US12110288B2, “MASP-2 inhibitors and methods of use” (Omeros Corporation, priority 2019, dated 2024).

Where a name gives a salt, the structure may show the parent alone.

T1 sequence (O00187 445-686 limits assumed): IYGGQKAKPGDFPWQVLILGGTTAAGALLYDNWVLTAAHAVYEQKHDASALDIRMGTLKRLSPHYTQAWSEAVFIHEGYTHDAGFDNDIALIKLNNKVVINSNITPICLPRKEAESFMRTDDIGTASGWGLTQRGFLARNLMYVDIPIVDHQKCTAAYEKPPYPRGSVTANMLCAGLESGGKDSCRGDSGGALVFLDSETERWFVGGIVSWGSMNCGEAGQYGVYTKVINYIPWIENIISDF
T1 sequence (O00187 298-444 partner limits assumed): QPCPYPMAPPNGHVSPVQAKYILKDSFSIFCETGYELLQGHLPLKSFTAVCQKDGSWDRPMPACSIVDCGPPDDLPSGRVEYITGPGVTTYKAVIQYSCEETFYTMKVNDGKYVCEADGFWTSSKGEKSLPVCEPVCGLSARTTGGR

This assay addresses T1, MASP-2 (CCP1-CCP2-SP) (Homo sapiens, UniProt O00187).
T1 construct: 15 μL of Enzyme MASP-2 (CCP1-CCP2-SP) in Assay Buffer
In words: Enzymatic Assay for MASP-2. Type of assay: biochemical. The conditions noted are these: fluorogenic substrate based on C2 cleavage site, room temperature, 20 mM HEPES pH 7.4. In short, it runs like this:
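Fluorogenic substrate modelled on the C2 cleavage site, run at room temperature in 20 mM HEPES pH 7.4, 140 mM NaCl, 0.1% Tween 20; compounds were added from DMSO serial dilutions before enzyme and substrate. Reactions ran 20 min and were stopped with 0.1 M acetic acid before fluorescence was read. % activity was normalised to DMSO-only and no-enzyme controls; IC50 was taken as Ki, with tight- or slow-binding inhibitors handled separately.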
Regarding `O=C(Cn1c(-c2ccccc2)cnc(NCC2(c3ccc(Cl)cc3)CC2)c1=O)NCc1cnc2c(c1)CNC2` [Compound 69, 2-(3-(((1-(4-Chlorophenyl)Cyclopropyl)Methyl)Amino)-2-Oxo-6-Phenylpyrazin-1(2H)-yl)-N-((6,7-Dihydro-5H-Pyrrolo[3,4-5]Pyridin-3-yl)Methyl)Acetamide Trifluoroacetate], the inhibition constant Ki was below 500 nM. For `Cc1nc(N)ccc1CNC(=O)Cn1c(C)ncc(NS(=O)(=O)Cc2ccccc2)c1=O` [Compound 1, N-((6-Amino-2-Methylpyridin-3-yl)Methyl)-2-(2-Methyl-6-Oxo-5-((Phenylmethyl)Sulfonamido)Pyrimidin-1(6H)-yl)Acetamide, Trifluoro Acetate], the inhibitory constant (Ki) was above 10000 nM. On to `O=C(Cn1c(-c2ccccc2)cnc(NCc2cc(F)cc(F)c2)c1=O)NCc1cc2cnccc2[nH]1` [Compound 154, N-((1H-Pyrrolo[3,2-c]pyridin-2-yl)methyl)-2-(3-((3,5-difluorobenzyl)amino)-2-oxo-6-phenylpyrazin-1(2H)-yl)acetamide], for which the Ki was below 500 nM.

`Cc1ccc(C)c(-c2cnc(NCCc3ccccc3)c(=O)n2CC(=O)NCc2cc3cnccc3[nH]2)c1` [Compound 108, N-((1H-Pyrrolo[3,2-c]pyridin-2-yl)methyl)-2-(6-(2,5-dimethylphenyl)-2-oxo-3-(phenethylamino)pyrazin-1(2H)-yl)acetamide] came in with a Ki below 500 nM. `Cc1nc(N)ccc1CNC(=O)Cn1c(-c2ccccc2)c(Cl)nc(N2CCCC2)c1=O` [Compound 40, N-((6-Amino-2-methylpyridin-3-yl)methyl)-2-(5-chloro-2-oxo-6-phenyl-3-(pyrrolidin-1-yl)pyrazin-1(2H)-yl)acetamide] returned an inhibition constant Ki below 500 nM.

Compound `Cc1nn(C2CC2)cc1-c1cnc(NCCc2ccccc2)c(=O)n1CC(=O)NCc1cc2cnccc2[nH]1` [Compound 114, N-((1H-Pyrrolo[3,2-c]pyridin-2-yl)methyl)-2-(6-(1-cyclopropyl-3-methyl-1H-pyrazol-4-yl)-2-oxo-3-(phenethylamino)pyrazin-1(2H)-yl)acetamide] yielded an inhibition constant (Ki) below 500 nM. With `O=C(Cn1c(-c2cnn(C3CNC3)c2)cnc(NCCc2ccccc2)c1=O)NCc1cc2cnccc2[nH]1` [Compound 112, N-((1H-Pyrrolo[3,2-c]Pyridin-2-yl)Methyl)-2-(6-(1-(Azetidin-3-yl)-1H-Pyrazol-4-yl)-2-Oxo-3-(Phenethylamino)Pyrazin-1(2H)-yl)Acetamide Hydrochloride], the Ki was below 500 nM. Regarding `Cn1cc(-c2cnc(NCCc3ccccc3)c(=O)n2CC(=O)NCc2cc3c(s2)CNCC3)cn1` [Compound 79], the Ki is below 500 nM. In turn, `COc1ccc(CNc2ncc(-c3ccccc3)n(CC(=O)NCc3cc4cnc(C)cc4[nH]3)c2=O)cc1` [Compound 77, 2-(3-((4-Methoxybenzyl)amino)-2-oxo-6-phenylpyrazin-1(2H)-yl)-N-((6-methyl-1H-pyrrolo[3,2-c]pyridin-2-yl)methyl)acetamide trifluoroacetate] yielded a Ki below 500 nM. `CNc1ncc(-c2ccccc2)n(CC(=O)NCc2cc3cnccc3[nH]2)c1=O` [Compound 148, N-((1H-Pyrrolo[3,2-c]pyridin-2-yl)methyl)-2-(3-(methylamino)-2-oxo-6-phenylpyrazin-1(2H)-yl)acetamide] returned a Ki below 500 nM. Under `O=C(Cn1c(-c2ccccc2)cnc(NC2(c3ccccc3)COC2)c1=O)NCc1cc2cnccc2[nH]1` [Compound 51, N-((1H-Pyrrolo[3,2-c]pyridin-2-yl)methyl)-2-(2-oxo-6-phenyl-3-((3-phenyloxetan-3-yl)amino)pyrazin-1(2H)-yl)acetamide trifluoroacetate] stands below 500 nM. Next, `O=C(Cn1c(-c2ccccc2)cnc(NC2(c3ccc(F)c(F)c3)CC2)c1=O)NCc1cc2cnccc2[nH]1` [Compound 74, N-((1H-Pyrrolo[3,2-c]pyridin-2-yl)methyl)-2-(3-((1-(3,4-difluorophenyl)cyclopropyl)amino)-2-oxo-6-phenylpyrazin-1(2H)-yl)acetamide trifluoroacetate]: below 500 nM; `O=C(Cn1c(-c2cnn(C3COC3)c2)cnc(NCCc2ccccc2)c1=O)NCc1cc2cnccc2[nH]1` [Compound 90, N-((1H-pyrrolo[3,2-c]pyridin-2-yl)methyl)-2-(6-(1-(oxetan-3-yl)-1H-pyrazol-4-yl)-2-oxo-3-(phenethylamino)pyrazin-1(2H)-yl)acetamide trifluoroacetate]: below 500 nM. Compound `CCOCCCNc1ncc(-c2cnn(C)c2)n(CC(=O)NCc2cc3cnccc3[nH]2)c1=O` [Compound 129, trifluoroacetate] gave an inhibition constant (Ki) below 500 nM. Consider `O=C(O)CNc1ncc(-c2ccccc2)n(CC(=O)NCc2cc3cnccc3[nH]2)c1=O` [Compound 118, (4-(2-(((1H-Pyrrolo[3,2-c]Pyridin-2-yl)Methyl)Amino)-2-Oxoethyl)-3-Oxo-5-Phenyl-3,4-Dihydropyrazin-2-yl)Glycine Trifluoroacetate], for which the inhibitory constant (Ki) was 500 to 2500 nM. In turn, `Cc1nc(N)ccc1CNC(=O)Cn1c(-c2cccc(CO)c2)cnc(NCCc2ccccc2)c1=O` [Compound 32, N-((6-Amino-2-Methylpyridin-3-yl)Methyl)-2-(6-(3-(Hydroxymethyl)Phenyl)-2-Oxo-3-(Phenethyl Amino)Pyrazin-1(2H)-yl)Acetamide] had an inhibition constant Ki below 500 nM.

Consider `O=C(Cn1c(-c2ccccc2)cnc(NCc2ccccc2)c1=O)NCc1cc2cnccc2[nH]1` [Compound 58, N-((1H-Pyrrolo[3,2-c]Pyridin-2-yl)Methyl)-2-(3-(Benzylamino)-2-Oxo-6-Phenylpyrazin-1(2H)-yl)Acetamide Trifluoroacetate], for which the Ki was below 500 nM. Next, `Cc1nc(N)ccc1CNC(=O)Cn1c(=O)c(NCCc2ccccc2)cn(C)c1=O` [Compound 34, N-((6-Amino-2-Methylpyridin-3-yl)Methyl)-2-(3-Methyl-2,6-Dioxo-5-(Phenethylamino)-3,6-Dihydropyrimidin-1(2H)-yl)Acetamide]: below 500 nM; `Cn1cc(-c2cnc(NCCc3ccccc3)c(=O)n2CC(=O)NCc2cc3cnccc3o2)cn1` [Compound 132]: 500 to 2500 nM. For `O=C(Cn1c(-c2ccccc2)cnc(N[C@@H](Cc2ccc(O)cc2)C(=O)O)c1=O)NCc1cc2cnccc2[nH]1` [Compound 119, trifluoroacetate], the inhibition constant (Ki) was below 500 nM. As for `Cn1cc(-c2cnc(NCCc3ccccc3)c(=O)n2CC(=O)NCc2cc(Cl)c3[nH]cnc3c2)cn1` [Compound 130, N-((7-Chloro-1H-Benzo[d]Imidazol-5-yl)Methyl)-2-(6-(1-Methyl-1H-Pyrazol-4-yl)-2-Oxo-3-(Phenethylamino)Pyrazin-1(2H)-yl)Acetamide], the Ki was in the range of 2500 to 10000 nM.

As to `COc1ccccc1-c1cnc(NCCc2ccccc2)c(=O)n1CC(=O)NCc1ccc(N)nc1C` [Compound 28, N-((6-Amino-2-methylpyridin-3-yl)methyl)-2-(6-(2-methoxyphenyl)-2-oxo-3-(phenethylamino)pyrazin-1(2H)-yl)acetamide hydrochloride], the Ki is below 500 nM.

For `O=C(Cn1c(-c2ccccc2)cnc(N2CCC2)c1=O)NCc1cc2cnccc2[nH]1` [Compound 149, N-((1H-Pyrrolo[3,2-c]pyridin-2-yl)methyl)-2-(3-(azetidin-1-yl)-2-oxo-6-phenylpyrazin-1(2H)-yl)acetamide], the Ki was below 500 nM.
